Measured values published in patent US10004792B2, “Peptides and combination of peptides for use in immunotherapy against various cancers” (immatics biotechnologies GmbH, priority 2015, dated 2018).

These substances were tested on CD8+ T cells (assay: In vitro immunogenicity: T-cell priming with aAPCs loaded with peptide/MHC and anti-CD28, multimer staining). Conditions: healthy donor CD8+ T cells, three stimulation cycles, multimer readout.
Format: cell-based, human
Source text: In order to obtain information regarding the immunogenicity of the TUMAPs of the present invention, the inventors performed investigations using an in vitro T-cell priming assay based on repeated stimulations of CD8+ T cells with artificial antigen presenting cells (aAPCs) loaded with peptide/MHC complexes and anti-CD28 antibody.
In order to perform in vitro stimulations by artificial antigen presenting cells loaded with peptide-MHC complex (pMHC) and anti-CD28 antibody, the inventors first isolated CD8+ T cells from fresh HLA-A*02 leukapheresis products via positive selection using CD8 microbeads (Miltenyi Biotec, Bergisch-Gladbach, Germany) of healthy donors obtained from the University clinics Mannheim, Germany, after informed consent.
PBMCs and isolated CD8+ lymphocytes were incubated in T-cell medium (TCM) until use consisting of RPMI-Glutamax (Invitrogen, Karlsruhe, Germany) supplemented with 10% heat inactivated human AB serum (PAN-Biotech, Aidenbach, Germany), 100 U/ml Penicillin/100 μg/ml Streptomycin (Cambrex, Cologne, Germany), 1 mM sodium pyruvate (CC Pro, Oberdorla, Germany), 20 µg/ml Gentamycin (Cambrex). 2.5 ng/ml IL7 (PromoCell, Heidelberg, Germany) and 10 U/ml IL-2 (Novartis Pharma, Nurnberg, Germany) were also added to the TCM at this step.
Generation of pMHC/anti-CD28 coated beads, T-cell stimulations and readout was performed in a highly defined in vitro system using four different pMHC molecules per stimulation condition and 8 different pMHC molecules per readout condition.
The purified co-stimulatory mouse IgG2a anti human CD28 Ab 9.3 (Jung et al., 1987) was chemically biotinylated using Sulfo-N-hydroxysuccinimidobiotin as recommended by the manufacturer (Perbio, Bonn, Germany). Beads used were 5.6 μm diameter streptavidin coated polystyrene particles (Bangs Laboratories, Illinois, USA).
pMHC used for positive and negative control stimulations were A*0201/MLA-001 (peptide […] (SEQ ID NO. 303) from modified Melan-A/MART-1) and A*0201/DDX5-001 ([…] from DDX5, SEQ ID NO. 304), respectively.
800.000 beads/200 μl were coated in 96-well plates in the presence of 4×12.5 ng different biotin-pMHC, washed and 600 ng biotin anti-CD28 were added subsequently in a volume of 200 μl. Stimulations were initiated in 96-well plates by co-incubating 1×10^6 CD8+ T cells with 2×10^5 washed coated beads in 200 μI TCM supplemented with 5 ng/ml IL-12 (PromoCell) for 3 days at 37° C. Half of the medium was then exchanged by fresh TCM supplemented with 80 U/ml IL-2 and incubating was continued for 4 days at 37° C. This stimulation cycle was performed for a total of three times. For the pMHC multimer readout using 8 different pMHC molecules per condition, a two-dimensional combinatorial coding approach was used as previously described (Andersen et al., 2012) with minor modifications encompassing coupling to 5 different fluorochromes. Finally, multimeric analyses were performed by staining the cells with Live/dead near IR dye (Invitrogen, Karlsruhe, Germany), CD8-FITC antibody clone SK1 (BD, Heidelberg, Germany) and fluorescent pMHC multimers. For analysis, a BD LSRII SORP cytometer equipped with appropriate lasers and filters was used. Peptide specific cells were calculated as percentage of total CD8+ cells. Evaluation of multimeric analysis was done using the FlowJo software (Tree Star, Oreg., USA). In vitro priming of specific multimer+CD8+ lymphocytes was detected by comparing to negative control stimulations.
For “298 (RYLEGTSCI; listed as Homo sapiens) [compound 298]”, the “Wells (in vitro immunogenicity)” value was “+ (<20% = +)”. “291 (KLDETGNSL; listed as Homo sapiens) [compound 291]” was tested, and the “Wells (in vitro immunogenicity)” value was “+ (<20% = +)”. “296 (TYVDSSHTI; listed as Homo sapiens) [compound 296]” was tested, and the “Wells (in vitro immunogenicity)” value was “+ (<20% = +)”. For “295 (YYPGVILGF; listed as Homo sapiens) [compound 295]”, the “Wells (in vitro immunogenicity)” value was “++ (20%-49% = ++)”. With “293 (FLVDGSWSI; listed as Homo sapiens) [compound 293]” the “Wells (in vitro immunogenicity)” value was “+ (<20% = +)”. In the case of “290 (KIVDFSYSV; listed as Homo sapiens) [compound 290]”, the “Wells (in vitro immunogenicity)” value is reported as “++ (20%-49% = ++)”. With “301 (AYKPGALTF; listed as Homo sapiens) [compound 301]” the “Wells (in vitro immunogenicity)” value was “+ (<20% = +)”. In the case of “300 (AYVLRLETL; listed as Homo sapiens) [compound 300]”, the “Wells (in vitro immunogenicity)” value is reported as “+ (<20% = +)”.

Same assay, conditions: in vitro immunogenicity of HLA class I peptides; peptide-specific multimer staining after aAPC priming of CD8+ T cells
For “218 (YYKSTSSAF; listed as Homo sapiens) [compound 218]”, the “Wells positive [%]” value was “+ (<20% = +)”. With “141 (FLDKVLVAA; listed as Homo sapiens) [compound 141]” the “Wells positive [%]” value was “+ (<20% = +)”. For “207 (AYVVFVSTL; listed as Homo sapiens) [compound 207]”, the “Wells positive [%]” value was “+ (<20% = +)”. With “31 (TITETTVEV; listed as Homo sapiens) [compound 31]” the “Wells positive [%]” value was “+ (<20% = +)”. For “90 (FLQDLEQRL; listed as Homo sapiens) [compound 90]”, the “Wells positive [%]” value was “+ (<20% = +)”. For “29 (YLLDPSITL; listed as Homo sapiens) [compound 29]”, the “Wells positive [%]” value was “+ (<20% = +)”. “26 (ALQEELTEL; listed as Homo sapiens) [compound 26]” was tested, and the “Wells positive [%]” value was “+ (<20% = +)”. For “268 (QYLGQIQHI; listed as Homo sapiens) [compound 268]”, the “Wells positive [%]” value was “+ (<20% = +)”. “149 (ILNTHITEL; listed as Homo sapiens) [compound 149]” was tested, and the “Wells positive [%]” value was “+ (<20% = +)”. “285 (HYPPVQVLF; listed as Homo sapiens) [compound 285]” was tested, and the “Wells positive [%]” value was “+ (<20% = +)”. “197 (EYSLFPGQVVI; listed as Homo sapiens) [compound 197]” was tested, and the “Wells positive [%]” value was “+ (<20% = +)”.

Each substance was assayed on HLA-A*24 (assay: MHC binding assay (UV-ligand exchange, beta2m ELISA), HLA-A*24). Conditions: peptide exchange yield, binding to HLA-A*24, UV-ligand exchange, β2m ELISA.
Set-up: species or system human
Source text: Candidate peptides for T cell based therapies according to the present invention were further tested for their MHC binding capacity (affinity). The individual peptide-MHC complexes were produced by UV-ligand exchange, where a UV-sensitive peptide is cleaved upon UV-irradiation, and exchanged with the peptide of interest as analyzed. Only peptide candidates that can effectively bind and stabilize the peptide-receptive MHC molecules prevent dissociation of the MHC complexes. To determine the yield of the exchange reaction, an ELISA was performed based on the detection of the light chain (β2m) of stabilized MHC complexes. The assay was performed as generally described in Rodenko et al. (Rodenko et al., 2006).
96 well MAXISorp plates (NUNC) were coated over night with 2 ug/ml streptavidin in PBS at room temperature, washed 4× and blocked for 1 h at 37° C. in 2% BSA containing blocking buffer. Refolded HLA-A*02:01/MLA-001 monomers served as standards, covering the range of 15-500 ng/ml. Peptide-MHC monomers of the UV-exchange reaction were diluted 100 fold in blocking buffer. Samples were incubated for 1h at 37° C., washed four times, incubated with 2 ug/ml HRP conjugated anti-62m for 1 h at 37° C., washed again and detected with TMB solution that is stopped with […]. Absorption was measured at 450 nm. Candidate peptides that show a high exchange yield (preferably higher than 50%, most preferred higher than 75%) are generally preferred for a generation and production of antibodies or fragments thereof, and/or T cell receptors or fragments thereof, as they show sufficient avidity to the MHC molecules and prevent dissociation of the MHC complexes.
For “168 (KYQDILETI; listed as Homo sapiens) [compound 168]”, the Peptide exchange was “++++ (>=75% = ++++)”. With “194 (EFGSLHLEFL; listed as Homo sapiens) [compound 194]” the Peptide exchange was “+ (<20% = +)”. For “173 (IYSWILDHF; listed as Homo sapiens) [compound 173]”, the Peptide exchange was “++++ (>=75% = ++++)”. “166 (YYVESGKLF; listed as Homo sapiens) [compound 166]” was tested, and the Peptide exchange was “++++ (>=75% = ++++)”. With “228 (KYTSWYVAL; listed as Homo sapiens) [compound 228]” the Peptide exchange was “++++ (>=75% = ++++)”. In the case of “227 (IFLDYEAGTLSF; listed as Homo sapiens) [compound 227]”, the Peptide exchange is reported as “++++ (>=75% = ++++)”. In the case of “272 (QYLQDAYSF; listed as Homo sapiens) [compound 272]”, the Peptide exchange is reported as “++++ (>=75% = ++++)”. With “274 (AYLHSHALI; listed as Homo sapiens) [compound 274]” the Peptide exchange was “++++ (>=75% = ++++)”. For “181 (LYLDIINLF; listed as Homo sapiens) [compound 181]”, the Peptide exchange was “++++ (>=75% = ++++)”. With “210 (IYTMIYRNL; listed as Homo sapiens) [compound 210]” the Peptide exchange was “++++ (>=75% = ++++)”. In the case of “195 (TYSVSFPMF; listed as Homo sapiens) [compound 195]”, the Peptide exchange is reported as “++++ (>=75% = ++++)”. With “202 (VYWDSAGAAHF; listed as Homo sapiens) [compound 202]” the Peptide exchange was “++++ (>=75% = ++++)”. With “160 (VYTLDIPVL; listed as Homo sapiens) [compound 160]” the Peptide exchange was “++++ (>=75% = ++++)”. For “276 (VYGFQWRHF; listed as Homo sapiens) [compound 276]”, the Peptide exchange was “++++ (>=75% = ++++)”. With “192 (SYALLTYMI; listed as Homo sapiens) [compound 192]” the Peptide exchange was “++++ (>=75% = ++++)”. With “267 (KYMVYPQTF; listed as Homo sapiens) [compound 267]” the Peptide exchange was “++++ (>=75% = ++++)”. For “211 (YYLEVGKTLI; listed as Homo sapiens) [compound 211]”, the Peptide exchange was “++++ (>=75% = ++++)”. With “177 (VYPWLGALL; listed as Homo sapiens) [compound 177]” the Peptide exchange was “++++ (>=75% = ++++)”. “217 (FFPPTRQMGLLF; listed as Homo sapiens) [compound 217]” was tested, and the Peptide exchange was “++++ (>=75% = ++++)”. For “193 (RFHPTPLLL; listed as Homo sapiens) [compound 193]”, the Peptide exchange was “++++ (>=75% = ++++)”. With “216 (QYSSVFKSL; listed as Homo sapiens) [compound 216]” the Peptide exchange was “++++ (>=75% = ++++)”. “179 (MYDSYWRQF; listed as Homo sapiens) [compound 179]” was tested, and the Peptide exchange was “++++ (>=75% = ++++)”. In the case of “184 (VFQNFPLLF; listed as Homo sapiens) [compound 184]”, the Peptide exchange is reported as “++++ (>=75% = ++++)”. With “271 (LYHDIFSRL; listed as Homo sapiens) [compound 271]” the Peptide exchange was “++++ (>=75% = ++++)”. For “277 (VYQGHTALL; listed as Homo sapiens) [compound 277]”, the Peptide exchange was “++++ (>=75% = ++++)”. With “282 (KFVDSTFYL; listed as Homo sapiens) [compound 282]” the Peptide exchange was “++++ (>=75% = ++++)”. For “186 (IFPQFLYQF; listed as Homo sapiens) [compound 186]”, the Peptide exchange was “++++ (>=75% = ++++)”. In the case of “187 (TYLRDQHFL; listed as Homo sapiens) [compound 187]”, the Peptide exchange is reported as “++++ (>=75% = ++++)”. In the case of “161 (IYLVSIPEL; listed as Homo sapiens) [compound 161]”, the Peptide exchange is reported as “++++ (>=75% = ++++)”. In the case of “280 (RYPDNLKHLYL; listed as Homo sapiens) [compound 280]”, the Peptide exchange is reported as “++++ (>=75% = ++++)”. For “172 (TYTTVPRVAF; listed as Homo sapiens) [compound 172]”, the Peptide exchange was “++++ (>=75% = ++++)”. In the case of “175 (YYEVHKELF; listed as Homo sapiens) [compound 175]”, the Peptide exchange is reported as “++++ (>=75% = ++++)”. In the case of “289 (KYPVEWAKF; listed as Homo sapiens) [compound 289]”, the Peptide exchange is reported as “++++ (>=75% = ++++)”. In the case of “278 (RYISDQLFTNF; listed as Homo sapiens) [compound 278]”, the Peptide exchange is reported as “++++ (>=75% = ++++)”.
